In patent publication US9884832B2 (priority 2011, dated 2018) one finds inhibition data, which are given here for 48 molecules.

Structures are written as SMILES.

AM2 S31 (wild-type serine at position 31 in the M2 protein), influenza virus A/Udorn/72, sequence (P0DOF5 whole entry, looked up): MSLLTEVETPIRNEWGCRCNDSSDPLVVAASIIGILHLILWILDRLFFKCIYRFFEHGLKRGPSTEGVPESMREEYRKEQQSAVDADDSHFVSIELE

The first experiment concerns the target AM2 S31 (wild-type serine at position 31 in the M2 protein), influenza virus A/Udorn/72 (Influenza A virus, UniProt P0DOF5). The experiment in a line: cell-based. Conditions: 100 uM; Xenopus oocytes; activity range class; read-out: S31 OOcyte Inhibition at 100 uM (%).
Consider `c1cc(-c2ccc(CNC34CC5CC(CC(C5)C3)C4)s2)[nH]n1` [Example 158a, N-((5-(1H-pyrazol-5-yl)thiophen-2-yl)methyl)adamantan-1-amine], for which the inhibition at 100 µM was in the range of 0 to 30%.

In the case of `c1ccc(-c2cc(CNC34CC5CC(CC(C5)C3)C4)no2)cc1` [Example 116a, N-((5-phenylisoxazol-3-yl)methyl)adamantan-1-amine], the inhibition at 100 µM lay in the range of 0 to 30%.

With `Cc1ncc(-c2ccc(CNC34CC5CC(CC(C5)C3)C4)s2)s1` [Example 154a, N-((5-(2-methylthiazol-5-yl)thiophen-2-yl)methyl)adamantan-1-amine], the inhibition at 100 µM was in the range of 0 to 30%.

For the molecule `c1csc(-c2csc(CNC34CC5CC(CC(C5)C3)C4)c2)c1` [Example 140a, Adamantan-1-yl-[2,3′]bithiophenyl-5′-ylmethyl-amine], the inhibition at 100 µM fell in the range of 0 to 30%.

Turning to `c1csc(-c2ncc(CNC34CC5CC(CC(C5)C3)C4)cn2)c1` [Example 61a, N-((2-(thiophen-2-yl)pyrimidin-5-yl)methyl)adamantan-1-amine], the inhibition at 100 µM fell in the range of 0 to 30%.

Consider `c1csc(CNC23CC4CC(CC(C4)C2)C3)c1` [Example 70a, Adamantan-1-yl-thiophen-2-ylmethyl-amine], for which the inhibition at 100 µM lay in the range of 31 to 95%.

For the molecule `COc1ccc(-c2cc(CNC34CC5CC(CC(C5)C3)C4)no2)cc1` [Example 110a, N-((5-(4-methoxyphenyl)isoxazol-3-yl)methyl)adamantan-1-amine], the inhibition at 100 µM lay within 0 to 30%.

For the molecule `Brc1ccc(-c2cc(CNC34CC5CC(CC(C5)C3)C4)on2)cc1` [Example 117a, N-((3-(4-bromophenyl)isoxazol-5-yl)methyl)adamantan-1-amine], the inhibition at 100 µM lay within 0 to 30%.

For `CC(NC12CC3CC(CC(C3)C1)C2)c1ccc(I)s1` (stereo not drawn) [Example 82a, N-(1-(5-iodothiophen-2-yl)ethyl)adamantan-1-amine], the inhibition at 100 µM was in the range of 31 to 95%.

With `Brc1ccc(-c2cc(CNC34CC5CC(CC(C5)C3)C4)no2)cc1` [Example 121a, N-((5-(4-bromophenyl)isoxazol-3-yl)methyl)adamantan-1-amine], the inhibition at 100 µM is 0 to 30%.

Turning to `c1ccc(Oc2ccc(CNC34CC5CC(CC(C5)C3)C4)cc2)cc1` [Example 13a, Adamantan-1-yl-(4-phenoxy-benzyl)-amine], the inhibition at 100 µM is 31 to 95%.

Regarding `C[Si](C)(C)c1ccc(CNC23CC4CC(CC(C4)C2)C3)cc1` [Example 6a, Adamantan-1-yl-(4-trimethylsilanyl-benzyl)-amine], the inhibition at 100 µM was in the range of 0 to 30%.

As to `c1cc(-c2ccc(CNC34CC5CC(CC(C5)C3)C4)s2)co1` [Example 137a, N-((5-(Furan-3-yl)thiophen-2-yl)methyl)adamantan-1-amine], the inhibition at 100 µM was in the range of 0 to 30%.

Turning to `c1csc(-c2cc(CNC34CC5CC(CC(C5)C3)C4)on2)c1` [Example 149a, N-((3-(thiophen-2-yl)isoxazol-5-yl)methyl)adamantan-1-amine], the inhibition at 100 µM lay within 0 to 30%.

For `COc1ccc2cc(CNC34CC5CC(CC(C5)C3)C4)sc2c1` [Example 185a, N-((6-methoxybenzo[b]thiophen-2-yl)methyl)adamantan-1-amine], the inhibition at 100 µM lay within 0 to 30%.

As for `c1cc(-c2cc(CNC34CC5CC(CC(C5)C3)C4)no2)cs1` [Example 150a, Adamantan-1-yl-(5-thiophen-3-yl-isoxazol-3-ylmethyl)-amine], the inhibition at 100 µM is 0 to 30%.

With `COc1ccc2nc(CN(Cc3nc4ccc(OC)cc4[nH]3)C34CC5CC(CC(C5)C3)C4)[nH]c2c1` [Example 201a, Adamantan-1-yl-bis-(6-methoxy-1H-benzoimidazol-2-ylmethyl)-amine], the inhibition at 100 µM lay within 0 to 30%.

Take `c1coc(-c2cc(CNC34CC5CC(CC(C5)C3)C4)no2)c1` [Example 153a, N-((5-(furan-2-yl)isoxazol-3-yl)methyl)adamantan-1-amine]: the inhibition at 100 µM is 0 to 30%.

For the molecule `Clc1cc2cc(CNC34CC5CC(CC(C5)C3)C4)sc2s1` [Example 173a, Adamantan-1-yl-(5-chloro-thieno[2,3-b]thiophen-2-ylmethyl)-amine], the inhibition at 100 µM lay in the range of 31 to 95%.

On to `Cc1cc(CNC23CC4CC(CC(C4)C2)C3)no1` [Example 95a, N-((5-methylisoxazol-3-yl)methyl)adamantan-1-amine], for which the inhibition at 100 µM fell in the range of 31 to 95%.

Staying with this experiment, now noted: Table 1; 100 uM; Xenopus oocytes, pH 5.5, -20 mV; read-out: S31 OOcyte Inhibition at 100 uM (%).
With `COc1ccc(CNC23CC4CC(CC(C4)C2)C3)cc1O` [Example 61, 5-(Adamantan-1-ylaminomethyl)-2-methoxy-phenol], the inhibition at 100 µM was 31 to 95%.

On to `Oc1ccc(CNC23CC4CC(CC(C4)C2)C3)cc1` [Example 9, 4-(Adamantan-1-ylaminomethyl)-phenol], for which the inhibition at 100 µM lay in the range of 31 to 95%.

For the molecule `NC(=O)c1ccc(CNC23CC4CC(CC(C4)C2)C3)cc1` [Example 18, 4-(Adamantan-1-ylaminomethyl)-benzamide], the inhibition at 100 µM was in the range of 0 to 30%.

`Oc1cc(F)c(CNC23CC4CC(CC(C4)C2)C3)c(F)c1` [Example 69, 4-(Adamantan-1-ylaminomethyl)-3,5-difluoro-phenol]: the inhibition at 100 µM fell in the range of 31 to 95%.

As to `c1coc(COc2ccc(CNC34CC5CC(CC(C5)C3)C4)cc2)c1` [Example 21, Adamantan-1-yl-[4-(furan-2-ylmethoxy)-benzyl]-amine], the inhibition at 100 µM is 31 to 95%.

As to `OCc1ccc(CNC23CC4CC(CC(C4)C2)C3)o1` [Example 77, [5-(Adamantan-1-ylaminomethyl)-furan-2-yl]methanol], the inhibition at 100 µM was 0 to 30%.

Turning to `c1ccc(CNC23CC4CC(CC(C4)C2)C3)cc1` [Example 8, Adamantan-1-yl-benzyl-amine], the inhibition at 100 µM lay within 31 to 95%.

Turning to `Oc1cccc(CNC23CC4CC(CC(C4)C2)C3)c1O` [Example 64, 3-(Adamantan-1-ylaminomethyl)-benzene-1,2-diol], the inhibition at 100 µM lay in the range of 31 to 95%.

Turning to `Oc1ccc(CNC2C3CC4CC(C3)CC2C4)cc1O` (stereo not drawn) [Example 101, 4-(Adamantan-2-ylaminomethyl)-benzene-1,2-diol], the inhibition at 100 µM was 31 to 95%.

For `COc1ccccc1CNC12CC3CC(CC(C3)C1)C2` [Example 29, Adamantan-1-yl-(2-methoxy-benzyl)-amine], the inhibition at 100 µM lay in the range of 0 to 30%.

For the molecule `CC(C)(C)CC(C)(C)NCc1ccc(O)cc1O` [Example 112, 4-[(1,1,3,3-Tetramethyl-butylamino)-methyl]-benzene-1,3-diol], the inhibition at 100 µM lay within 31 to 95%.

Regarding `Oc1ccc(CN2CCC3(CCCCC3)CC2)c(O)c1` [Example 115, 4-(3-Aza-spiro[5.5]undec-3-ylmethyl)-benzene-1,3-diol], the inhibition at 100 µM is 31 to 95%.

As for `c1cc(CNC23CC4CC(CC(C4)C2)C3)ccn1` [Example 73, Adamantan-1-yl-pyridin-4-ylmethyl-amine], the inhibition at 100 µM fell in the range of 31 to 95%.

Consider `Oc1ccc(/C=N/C23CC4CC(CC(C4)C2)C3)cc1` [Example 6], for which the inhibition at 100 µM was in the range of 31 to 95%.

For `Fc1ccc(C(F)(F)F)cc1CNC12CC3CC(CC(C3)C1)C2` [Example 62, Adamantan-1-yl-(2-fluoro-5-trifluoromethyl-benzyl)-amine], the inhibition at 100 µM was 0 to 30%.

In the case of `O=C(Oc1ccc(CNC23CC4CC(CC(C4)C2)C3)cc1)c1cccs1` [Example 37, Thiophene-2-carboxylic acid 4-(adamantan-1-ylaminomethyl)-phenyl ester], the inhibition at 100 µM fell in the range of 0 to 30%.

Turning to `c1cc(-c2ccc(CNC34CC5CC(CC(C5)C3)C4)cc2)co1` [Example 42, N-(4-(Furan-3-yl)benzyl)adamantan-1-amine], the inhibition at 100 µM fell in the range of 0 to 30%.

The same experiment, now with this note: Table 3; 100 uM; Xenopus oocytes, pH 5.5, -20 mV; read-out: S31 OOcyte Inhibition at 100 uM (%).
For the molecule `Oc1cc(I)ccc1CNC12CC3CC(CC(C3)C1)C2` [Example 2b], the inhibition at 100 µM was in the range of 31 to 95%.

As to `FC(F)(F)Oc1ccc(-c2cc(CNC34CC5CC(CC(C5)C3)C4)no2)cc1` [Example 36b, N-((5-(4-(trifluoromethoxy)phenyl)isoxazol-3-yl)methyl)adamantan-1-amine], the inhibition at 100 µM lay in the range of 0 to 30%.

On to `c1cc2[nH]c(CNC34CC5CC(CC(C5)C3)C4)cc2o1` [Example 78b, Adamantan-1-yl-(4H-furo[3,2-b]pyrrol-5-ylmethyl)-amine], for which the inhibition at 100 µM lay in the range of 31 to 95%.

For the molecule `Oc1cc(-c2ccsc2)ccc1CNC12CC3CC(CC(C3)C1)C2` [Example 8b], the inhibition at 100 µM is 0 to 30%.

With `COc1ccc(-c2noc(CNC34CC5CC(CC(C5)C3)C4)n2)cc1OC` [Example 35b, N-((3-(3,4-dimethoxyphenyl)-1,2,4-oxadiazol-5-yl)methyl)adamantan-1-amine], the inhibition at 100 µM was 0 to 30%.

As for `Cn1cc(CNC23CC4CC(CC(C4)C2)C3)nn1` [Example 18b, N-((1-methyl-1H-1,2,3-triazol-4-yl)methyl)adamantan-1-amine], the inhibition at 100 µM lay within 0 to 30%.

As for `c1ccc(-c2cnc(CNC34CC5CC(CC(C5)C3)C4)[nH]2)cc1` [Example 53b, N-((5-phenyl-1H-imidazol-2-yl)methyl)adamantan-1-amine], the inhibition at 100 µM is 0 to 30%.

For the molecule `COc1ncc(CNC23CC4CC(CC(C4)C2)C3)c(OC)n1` [Example 64b, N-((2,4-dimethoxypyrimidin-5-yl)methyl)adamantan-1-amine], the inhibition at 100 µM fell in the range of 0 to 30%.

For `OC12CC3CC(C1)CC(NCc1noc(-c4ccccc4)n1)(C3)C2` [Example 84b, (1s,3r,5R,7S)-3-(((5-phenyl-1,2,4-oxadiazol-3-yl)methyl)amino)adamantan-1-61], the inhibition at 100 µM lay within 0 to 30%.

`Clc1ccccc1-c1ccc(CNC23CC4CC(CC(C4)C2)C3)nc1` [Example 72b, Adamantan-1-yl-[5-(2-chloro-phenyl)-pyridin-2-ylmethyl]-amine]: the inhibition at 100 µM was 0 to 30%.

Still in this experiment, the particulars now being: pH 5.5, read-out: S31 OOcyte Inhibition at 100 uM (%).
Regarding `Oc1ccccc1CNC12CC3CC(CC(C3)C1)C2` [Example 28, 2-(Adamantan-1-ylaminomethyl)-phenol], the inhibition at 100 µM was 31 to 95%.

As usually defined, the inhibition is the percentage by which the read-out fell short of the control.
